Data as given in ChEMBL document CHEMBL1201862, “PubChem BioAssay data set” (2004).
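Exposure lasted 48 hours, with cells grown in 96-well plates and compounds tested at five concentrations. Here, GI50 denotes the concentration required for 50% inhibition of growth.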 Activity calls are given as the source filed them. No stated cut-off is given here; in the data, active = GI50 up to about 1.1 µM and inactive = higher.

Legend:
Experiment in all cases: growth of human tumour cells (NCI), 48 h
786-0 = test system: 786-0
A498 = test system: A498
A549 = test system: A549
ACHN = test system: ACHN
BT-549 = test system: BT-549
CAKI-1 = test system: CAKI-1
CCRF-CEM = test system: CCRF-CEM
COLO 205 = test system: COLO 205
DU-145 = test system: DU-145
EKVX = test system: EKVX
HCC 2998 = test system: HCC 2998
HCT-116 = test system: HCT-116
HCT-15 = test system: HCT-15
HL-60 = test system: HL-60
HOP-62 = test system: HOP-62
HOP-92 = test system: HOP-92
HT-29 = test system: HT-29
Hs-578T = test system: Hs-578T
IGROV-1 = test system: IGROV-1
K562 = test system: K562
KM12 = test system: KM12
LOX IMVI = test system: LOX IMVI
M14 = test system: M14
MCF7 = test system: MCF7
MDA-MB-231 = test system: MDA-MB-231
MDA-MB-435 = test system: MDA-MB-435
MDA-N = test system: MDA-N
MOLT-4 = test system: MOLT-4
Malme-3M = test system: Malme-3M
NCI-H226 = test system: NCI-H226
NCI-H23 = test system: NCI-H23
NCI-H460 = test system: NCI-H460
NCI-H522 = test system: NCI-H522
NCI/ADR-RES = test system: NCI/ADR-RES
OVCAR-3 = test system: OVCAR-3
OVCAR-4 = test system: OVCAR-4
OVCAR-5 = test system: OVCAR-5
OVCAR-8 = test system: OVCAR-8
PC-3 = test system: PC-3
RPMI-8226 = test system: RPMI-8226
RXF 393 = test system: RXF 393
SF-268 = test system: SF-268
SF-295 = test system: SF-295
SF-539 = test system: SF-539
SK-MEL-28 = test system: SK-MEL-28
SK-MEL-2 = test system: SK-MEL-2
SK-MEL-5 = test system: SK-MEL-5
SK-OV-3 = test system: SK-OV-3
SN12C = test system: SN12C
SNB-19 = test system: SNB-19
SNB-75 = test system: SNB-75
SR = test system: SR
SW-620 = test system: SW-620
T47D = test system: T47D
TK-10 = test system: TK-10
U-251 = test system: U-251
UACC-257 = test system: UACC-257
UACC-62 = test system: UACC-62
UO-31 = test system: UO-31

CC(C)(C)OC(=O)CN1CCN(CC(=O)N2CCN(C(=O)OCc3ccccc3)CC2)CCN(CC(=O)OC(C)(C)C)CCN(CC(=O)N2CCN(C(=O)OCc3ccccc3)CC2)CC1
GI50 (786-0): 2.21 µM (inactive)
GI50 (A498): 15.4 µM (inactive)
GI50 (A549): 3.27 µM (inactive)
GI50 (ACHN): 7.73 µM (inactive)
GI50 (BT-549): 3.94 µM (inactive)
GI50 (CAKI-1): 10.1 µM (inactive)
GI50 (CCRF-CEM): 1.41 µM (inactive)
GI50 (COLO 205): 1.15 µM (inactive)
GI50 (DU-145): 6.95 µM (inactive)
GI50 (EKVX): 10.5 µM (inactive)
GI50 (HCC 2998): 1.69 µM (inactive)
GI50 (HCT-116): 3.11 µM (inactive)
GI50 (HCT-15): 6.15 µM
GI50 (HL-60): 0.225 µM (active)
GI50 (HOP-62): 3.7 µM (inactive)
GI50 (HOP-92): 2.6 µM (inactive)
GI50 (HT-29): 0.318 µM (active)
GI50 (Hs-578T): 1.79 µM (inactive)
GI50 (IGROV-1): 0.853 µM (active)
GI50 (K562): 0.989 µM (active)
GI50 (KM12): 1.42 µM (inactive)
GI50 (LOX IMVI): 1.25 µM (inactive)
GI50 (M14): 3.21 µM (inactive)
GI50 (MCF7): 2.35 µM (inactive)
GI50 (MDA-MB-231): 1.64 µM (inactive)
GI50 (MDA-MB-435): 2.13 µM (inactive)
GI50 (MDA-N): 2.18 µM (inactive)
GI50 (MOLT-4): 1.98 µM (inactive)
GI50 (Malme-3M): 2.33 µM (inactive)
GI50 (NCI-H226): 3.84 µM (inactive)
GI50 (NCI-H23): 2.6 µM (inactive)
GI50 (NCI-H460): 1.35 µM (inactive)
GI50 (NCI-H522): 0.785 µM (active)
GI50 (NCI/ADR-RES): 14.3 µM (inactive)
GI50 (OVCAR-3): 2.83 µM (inactive)
GI50 (OVCAR-4): 2.73 µM (inactive)
GI50 (OVCAR-5): 13.1 µM (inactive)
GI50 (OVCAR-8): 2.83 µM (inactive)
GI50 (PC-3): 2.51 µM (inactive)
GI50 (RPMI-8226): 0.942 µM (active)
GI50 (RXF 393): 3.61 µM (inactive)
GI50 (SF-268): 2.48 µM (inactive)
GI50 (SF-295): 3.35 µM (inactive)
GI50 (SF-539): 2.17 µM (inactive)
GI50 (SK-MEL-28): 4.93 µM (inactive)
GI50 (SK-MEL-2): 1.82 µM (inactive)
GI50 (SK-MEL-5): 1.71 µM (inactive)
GI50 (SK-OV-3): 3.47 µM (inactive)
GI50 (SN12C): 2.76 µM (inactive)
GI50 (SNB-19): 3.48 µM (inactive)
GI50 (SNB-75): 1.35 µM (inactive)
GI50 (SR): 0.407 µM (active)
GI50 (SW-620): 1.67 µM (inactive)
GI50 (T47D): 3.12 µM (inactive)
GI50 (TK-10): 5.92 µM (inactive)
GI50 (U-251): 1.7 µM (inactive)
GI50 (UACC-257): 2.54 µM (inactive)
GI50 (UACC-62): 2.67 µM (inactive)
GI50 (UO-31): 12.7 µM (inactive)
